How the values were obtained:
[1] = system: BHQ1-pre-let7a and EGFP-Lin28A bound complexes; test: FRET assay, displacement of BHQ1-pre-let7a from EGFP-Lin28A; format: binding; conditions: at 100 μM
Protocol: This method was adapted from Roos et al (2016). HEK 293-T cells (ATCC) were cultured as monolayers in DMEM GlutaMAX™-1 (Cat #31966-021, Gibco®, Life Technologies) supplemented with 10% of FBS (fetal bovine serum). Stable EGFP-Lin28A HEK 293-T cells were cultured as monolayers in DMEM supplemented with 10% of FBS (fetal bovine serum) and 0.5 mg/ml Geneticin G418 (10131-035, Life Technologies). Transfections were performed according to the manufacturer's protocol with […] (12252-011, Invitrogen, Life Technologies) for siRNAs and JetPEI (101-10, Polyplus transfections) was used for plasmid DNA. […]
160,000 HEK 293 T cells were seeded per well in 6 well plates and transfected with 320 ng pEGFP-C2-Lin28A plasmid according to the experimental setup with the reagents described above and cells were allowed to recover for 48h. […] The EGFP-lin28A| expressing cells were sorted using Fluorescence Activated Cell Sorting (FACS). Finally, larger colonies of individual clones were analyzed for expression levels of EGFP-Lin28A by performing the FRET assay. […]
FRET system (EGFP-Lin28A and 19B-let7a) treated with DMSO was used as positive control. […] The FRET measurements were obtained from the optimized fluorescence parameter. […] The average signal intensity and background fluorescence were corrected with compound self-fluorescence with and without binding buffer.

[2] = system: LIN28A-positive cancer cell models; test: Alamar Blue cell viability, LIN28A-positive versus LIN28B-expressing cancer cell models; format: cell-based; conditions: relative to LIN28B-expressing cancer cell models
Protocol: FIG. 6: Cells were cultured in the presence of the Compound of formula (I) (P1+P2) at increasing concentrations and cell viability was evaluated using Alamar Blue dye and measurement at Excitation of 550 nm and Emission of 590 nm. All the data shown are representative of three replicates. […] LIN28A and LIN28B expression in the presence of Compound of formula (I) correlates with the sensitivity of cells to this inhibitor.
(§1) FIG. 8A-F: Cells were cultured in the presence of the Compound of formula (I) (versions P1, P2 or P1+P2 at equipotent doses) at increasing concentrations and cell viability was evaluated using Alamar Blue dye and measurement at Excitation of 550 nm and Emission of 590 nm. All the data shown are representative of three replicates. […] A. NT-2 cell viability. B. YP-MEL cell viability. C. WI-38 cell viability. D. T47D cell viability. E. BT-12 cell viability. F. summary of Lin28A and Lin28B status.
as §1, with “8A-F.” for “8A-F:”, “F. summary of Lin28A and Lin28B status.” left out

let-7a miRNA = test: Taqman miRNA qRT-PCR of let-7a; format: cell-based
Protocol: FIG. 11: Compound of formula (I) lead to successful rescue of pre-Iet-7a and their maturation to miRNA let-7a tumor suppressor, only at 1 μM.
Total RNA was extracted using the RNeasy kit (74104, Qiagen). TaqMan® qRT-PCR was performed using standard reagents from Life Technologies (TaqMan® MicroRNA Assay: hsa-let-7a: 000377). The RT was performed using the TaqMan® primers from MicroRNA Assays and the TaqMan® MicroRNA Reverse Transcription Kit (4366596, Life technologies) with 20 ng total RNA. The PCR was performed in a LightCycler 480 instrument with GoTaq® Probe qPCR Master mix (A6102, Promega) according to the manufacturer's protocol. Each reaction was carried out in three technical replicates.

stem cell tumor spheres = test: Stem cell tumor spheres, western blotting of stemness and differentiation markers; format: cell-based
Protocol: FIG. 12: Dose-dependent effect of Compound of formula (I) on the stem cell tumor spheres, in the presence of LIF—a pluripotency supplement used for maintenance of stem cell population (Panel A). As determined by western blotting, Compound of formula (I) begins to halt the expression of stemness markers (Nestin, LIN28A, Oct-4) and induces elevation of differentiation markers (GFAP), from 1 μM onwards (Panel B).
(§2) The proteins were extracted from the same samples as the RNA using the RIPA lysis buffer. The protein extracts (20 μg) were run on 10% SDS-PAGE and transferred on a nitrocellulose blotting membrane 0.22 μm (GE Healthcare) using the Trans-Blot® SD semi-dry transfer devise (Biorad). The proteins were detected using the anti-Lin28A antibody (#8706; Cell Signaling Technology), anti-Lin28B antibody (#11965, Cell Signaling Technology) the anti-beta-actin antibody at respectively 1:2000, 1:2000 and 1:5000 dilutions.

Solubility = format: physicochemical; conditions: DMSO, organic solvent or mixture; read-out: solubility in DMSO
LIN28B protein = biological target: T1, LIN28B protein (Homo sapiens, UniProt Q6ZN17); test: Western blotting of Lin28B protein in cancer cell models; format: cell-based; conditions: YP-MEL, BT-37, NT-2 cells; at the tested dosages
T1 construct: in a panel of endogenously LIN28 expressing cancer cell models; endogenous in cells; host or cells: YP-MEL, BT-12, BT-37, NT-2 (NTERA)
T1 sequence (Q6ZN17 1-250): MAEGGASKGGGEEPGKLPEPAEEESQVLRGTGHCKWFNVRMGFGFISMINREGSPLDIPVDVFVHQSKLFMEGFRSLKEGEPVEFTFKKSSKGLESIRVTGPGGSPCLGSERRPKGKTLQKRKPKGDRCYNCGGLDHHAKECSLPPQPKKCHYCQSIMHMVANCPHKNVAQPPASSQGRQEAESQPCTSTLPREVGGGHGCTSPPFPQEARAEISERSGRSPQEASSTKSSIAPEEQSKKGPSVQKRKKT
Protocol: FIG. 5: Compound of formula (I) mixture, containing the two isomers (P1+P2) causes significant reduction in Lin28A protein from 5 μM onwards, in a panel of endogenously LIN28 expressing cancer cell models. […] LIN28A and LIN28B expression profile in pediatric CNS cancer cell lines, 96-hr post-treatment with Compound of formula (I). SDS-PAGE on 10% polyacrylamide gel of total cell lysates from untreated cells harvested at 80-90% confluency. Samples loaded with volumes for 20 μg protein. LIN28A and LIN28B proteins were detected using the anti-LIN28A antibody (#8706; Cell Signaling Technology) and anti-LIN28B antibody (#11965; Cell Signalling Technology) at 1:2000 dilutions. T47D: adult breast cancer (LIN28A expressing); YPMEL: malignant melanoma derived from Neurocutaneous Melanosis (NCM) (Lin28A and Lin28B expressing); BT-12: pediatric atypical-teratoid rhabdoid tumor (AT/RT). […]
The proteins were extracted from the same samples as the RNA using the RIPA lysis buffer. […] The proteins were detected using the anti-Lin28A antibody (#8706; Cell Signaling Technology), anti-Lin28B antibody (#11965, Cell Signaling Technology) the anti-beta-actin antibody at respectively 1:2000, 1:2000 and 1:5000 dilutions.

[3] = system: NT-2 testicular cancer cells; test: Flow cytometric (propidium iodide) cell cycle analysis of NT-2 cells; format: cell-based; conditions: 24h, compared with P1
Protocol: FIG. 9: NT-2, testicular cancer cells, were incubated with Compound of formula (I) isomers for 24h and subjected to Flow Cytometric analysis to determine the alterations in cancer cell cycle. […] Therefore, only the P1 isomer of Compound of formula (I) was investigated further to determine its in vitro and in vivo efficacy.
The method for Propidium Iodide (PI) based cell cycle analysis was performed as per the instructions given by the manufacturer (AB139418; Abcam). Briefly NT-2 cells treated with Compound of formula (I) versions were harvested in single cell suspensions with each experimental condition containing two million cells, fixed in 66% Ethanol overnight at 4° C. The ethanol was removed thoroughly by centrifugation, followed by rehydration of cells in PBS with a repeat of centrifugation. Cells were stained in PI (1%) and RNase solution (1%) in PBS for 30 minutes at 37° C. in the dark. The cells were analyzed immediately on the Flow Cytometer.

Lin28A protein = biological target: T2, Lin28A protein (Homo sapiens, UniProt Q9H9Z2); test: Western blotting of Lin28A protein in cancer cell models; format: cell-based; conditions: YP-MEL, BT-37, NT-2 cells
T2 construct: in a panel of endogenously LIN28 expressing cancer cell models; endogenous in cells; host or cells: T47D, YP-MEL, BT-12, BT-37, NT-2 (NTERA)
T2 sequence (Q9H9Z2 1-209): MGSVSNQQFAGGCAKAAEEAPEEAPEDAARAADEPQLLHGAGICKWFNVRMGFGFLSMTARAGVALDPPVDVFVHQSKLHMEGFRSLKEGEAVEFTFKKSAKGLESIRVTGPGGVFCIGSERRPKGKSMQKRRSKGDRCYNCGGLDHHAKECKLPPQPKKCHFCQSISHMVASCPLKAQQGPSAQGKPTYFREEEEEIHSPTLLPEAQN
Protocol: FIG. 5: Compound of formula (I) mixture, containing the two isomers (P1+P2) causes significant reduction in Lin28A protein from 5 μM onwards, in a panel of endogenously LIN28 expressing cancer cell models. […] LIN28A and LIN28B expression profile in pediatric CNS cancer cell lines, 96-hr post-treatment with Compound of formula (I). SDS-PAGE on 10% polyacrylamide gel of total cell lysates from untreated cells harvested at 80-90% confluency. Samples loaded with volumes for 20 μg protein. LIN28A and LIN28B proteins were detected using the anti-LIN28A antibody (#8706; Cell Signaling Technology) and anti-LIN28B antibody (#11965; Cell Signalling Technology) at 1:2000 dilutions. T47D: adult breast cancer (LIN28A expressing); YPMEL: malignant melanoma derived from Neurocutaneous Melanosis (NCM) (Lin28A and Lin28B expressing); BT-12: pediatric atypical-teratoid rhabdoid tumor (AT/RT).
FIG. 7A-C: To determine the differences in the biological activity of the two isomers (P1+P2) of Compound of formula (I), we tested the effects of purified and separated P1 and P2 isomers on the protein expression of Lin28A and Lin28B. (A) YP-MEL (NCM). (B) BT-37 (AT/RT). (C) NT-2 (NTERA) (Testicular cancer).
as §2

## CC(=O)N(C)c1cccc(-c2ccc3nnc(C)n3n2)c1 [c1632, reference compound]
[1]
  FRET reduction compared with 70% by Compound of formula (I): equivalent FRET reduction

## CC[C@H](C)[C@H](NC(=O)[C@H](Cc1ncc[nH]1)NC(=O)c1cccc(C(N)=O)c1)C(=O)Nc1ccc(O)c(-c2nc3ccccc3s2)c1 [Compound of formula (I)]
[2]
  sensitivity of LIN28A-positive cancer cell models: heightened sensitivity
let-7a miRNA
  concentration giving rescue of pre-let-7a and maturation to miRNA let-7a: 1 µM
let-7a miRNA; Lin28B expressing BT-12 cells, relative to RNU6B
  upregulation of let-7a: only minor upregulation
let-7a miRNA; YP-MEL, T47D, A549 cells, relative to RNU6B
  expression of let-7a miRNA tumor suppressor: increase in the expression
Stem cell tumor spheres
  effect on stemness and differentiation markers in the stem cell population: dose dependent reduction of sternness markers and elevation of differentiation markers
Stem cell tumor spheres; in the presence of LIF, western blotting
  concentration from which stemness markers (Nestin, LIN28A, Oct-4) are halted and differentiation markers (GFAP) elevated: ≥ 1 µM

## CCC(C)C(NC(=O)C(Cc1ncc[nH]1)NC(=O)c1cccc(C(N)=O)c1)C(=O)Nc1ccc(O)c(-c2nc3ccccc3s2)c1 (centres unmarked) [Compound P2]
Solubility
  solubility: < 1 mg/mL
LIN28B protein
  Lin28B expression: remained unaltered
[3]
  triggering of cancer cell death / changes in cancer cell viability: failed to cause any significant changes
Lin28A protein
  effect on the expression levels of Lin28A: no effect
